Reference: patent publication US20030219894A1, “Induction of insulin-producing cells” (JCR Pharmaceuticals Co., Ltd., priority 2002, published 2003)

How the values were obtained:
Type in all cases: cell-based
mouse fetal hepatocytes [1] = assay: RT-PCR analysis of insulin 1 and 2 gene expression in cultured fetal hepatocytes with medium supplements; details: for induction of insulin 1 and 2 gene expression: supplement separately added to DMEM/F12 containing 10% FBS
Protocol: For preparing fetal hepatocytes, the liver of fetal ICR mice (embryonic day 13.5) was excised and treated with 0.1% trypsin-phosphate-buffered saline for 5 min at 37° C. A culture medium solution then was added, and the mixture was filtered through a nylon membrane (#200). The cell suspension thus obtained was centrifuged at 50 g for 5 min. The cell pellet was suspended in a medium consisting of 1:1 DMEM/F12 (Sigma D6421) supplemented with 10% fetal bovine serum, L-glutamine (2 mmol/L), β-mercaptoethanol (β-ME), (50 μmol/L), penicillin (100,000 U/L) and streptomycin (100 mg/L). The formula of the 1:1 DMEM/F12 (Dulbecco's Modified Eagle's Medium/Ham's Nutrient Mixture F-12: Sigma D6421) was as follows (in g/L): Ca2Cl2/2H2O (0.1545), CuSO4/5H2O (0.0000013), Fe(NO3)3/9H2O (0.00005). […]
Both insulin 1 and 2 genes were clearly expressed under the culture conditions used, as determined by RT-PCR analysis. […] Each of these supplements was separately added to the DMEM/F12 containing 10% FBS, and effects on insulin expression was evaluated in thus formed different media. […]

[2] = tested on: mouse embryonic fibroblasts (MEF); assay: RT-PCR analysis of insulin 1 and 2 gene expression in mouse embryonic fibroblasts (negative control cells); details: MEF from fetal limbs (ED13.5), medium supplemented with nicotinamide; FIG. 1
Protocol: (§1) Both insulin 1 and 2 genes were clearly expressed under the culture conditions used, as determined by RT-PCR analysis. It was assumed that some of the supplements (nicotinamide, EGF, insulin or dexamethasone) to the culture medium were responsible for the expression of the insulin genes in the hepatocytes. Each of these supplements was separately added to the DMEM/F12 containing 10% FBS, and effects on insulin expression was evaluated in thus formed different media. When cultured in a medium not supplemented with nicotinamide (containing just 0.0165 mmol/L of nicotinamide), the mouse fetal hepatocytes either din not express the insulin 1 or 2 gene at all, or did expressed them but only very poorly (FIG. 1). […] As a negative control, mouse embryonic fibroblasts (MEF) were prepared from fetal limbs (ED13.5), and cultured under the same conditions. […] Immunohistochemistry using anti-insulin antibody was employed to confirm that a high-concentration of nicotinamide was requited for the differentiation of mouse fetal hepatocytes into insulin-producing cells.

mouse fetal hepatocytes [3] = assay: Immunohistochemistry using anti-insulin antibody; details: medium supplemented with nicotinamide; FIG. 3 vs FIG. 2
Description: Fetal hepatocytes were fixed with 4% paraformaldehyde in 0.1 M phosphate buffer and stained by direct immunoperoxidase method using a guinea pig anti-pig insulin antibody (Zymed Laboratories, South San Francisco, Calif.) and a peroxidase-labeled pig anti-guinea pig IgG (DAKO Japan, Kyoto).
as §1

| Molecule | expression of the insulin 1 and 2 genes (mouse fetal hepatocytes [1]; medium supplemented with 10 mmol/L of nicotinamide, DMEM/F12 containing 10% FBS, FIG. 1) | expression of the insulin 1 and 2 genes in MEF [2] | generation of insulin-positive cells (anti-insulin immunostaining) (mouse fetal hepatocytes [3]) | induction of insulin 1 and 2 gene expression (mouse fetal hepatocytes [1]) |
| --- | --- | --- | --- | --- |
| NC(=O)c1cccnc1 [nicotinamide] | markedly induced | expressed | led to generation of insulin-positive cells | – |
| EGF: epidermal growth factor (EGF), culture medium supplement (NSDSECPLSHDGYCLHDGVCMYIEALDKYACNCVVGYIGERCQYRDLKWWELR; Epidermal growth factor; UniProt P01133 971-1023, looked up) | – | – | – | either had no effect or had only a marginal effect |
| insulin: insulin, culture medium supplement (172 nmol/L) | – | – | – | either had no effect or had only a marginal effect |
